Patent US11447484B2, “Cyclic compound having dopamine D3 receptor antagonistic effect” (Shionogi & Co., Ltd., priority 2018, dated 2022)

Assays:
[1] = target: human recombinant D3 receptor (Homo sapiens (Human), UniProt P35462); experiment: Test of binding inhibition for dopamine D3 receptor; settings: Jump-In HEK cell membranes, 2 nM [3H]-Methylspiperone, 120 min at 25° C.; read-out: hD3_Ki
Description: Test Example 1: Test of Binding Inhibition for Dopamine D3 Receptor
(§1) (Experimental Conditions)
Cell membranes: Jump-In HEK cell membranes expressing human recombinant D3 receptor (4 μg/well)
(§2) Buffer solution: 50 mM Tris-HCl (35409-45, Nacalai Tesque) (pH 7.4) containing 120 mM NaCl (31320-05, Nacalai Tesque), 1 mM MgCl2.6H2O (20909-55, Nacalai Tesque), 5 mM KCl (28514-75, Nacalai Tesque) and 2 mM CaCl2 (067-31, NAKARAI CHEMICALS, LTD.)
Radioligand: (final concentration) 2 nM [^3H]-Methylspiperone ([^3H—N-methyl-]-Methylspiperone, NET-856, 83.8 Ci/mmol, PerkinElmer)
Non-specific ligand: (final concentration) 10 μM Butaclamol [(+)-Butaclamol Hydrochloride, D033, Sigma]
(§3) SPA beads solution: SPA beads [WGA PVT SPA Scintillation Beads, RPNQ0001 (500 mg), RPNQ0060 (2 g), PerkinElmer] (0.2 mg/well)
(§4) Incubation time and temperature: 120 min at 25° C.
(§5) Butaclamol or the compounds of the present invention were weighed and DMSO was added to make a 10 mM solution. This solution was diluted to each concentration.
[^3H]-Methylspiperone was weighed and the buffer solution was added to make a 6 nM solution.
(§6) SPA beads were weighed and stirred in water to make a 50 mg/mL solution. Using this solution, a mixture with the cell membranes was prepared.
(§7) 225 nL of the solutions of the non-specific ligand or the compounds of the present invention at each concentration (in case of vehicle, final concentration 0.3% DMSO) were added in each well of a 384-well white/clear bottom microplate (3706, Corning). Jump-In HEK Cell membranes (final reaction amount: 4 μg protein/well), the SPA beads solution (final reaction amount: 0.2 mg/well) and the buffer solution were mixed and the mixed solution was left still for 1 hour or more at 4° C. Then, 50 μL of the mixture was added to each well of the plate. In addition, 25 μL of 6 nM [^3H]-Methylspiperone (final concentration: 2 nM) was added to each well. The plate was sealed by putting TopSeal-A 96/384 well (6050185, PerkinElmer, Inc.) on the top of the plate, mixed using stirring deaerator (Well Tornado, FK-62, Sakaki-elc.) and incubated for 120 min at 25° C. After incubation, the radioactivity of [^3H]-Methylspiperone which was bonded to D3 receptor was determined by liquid scintillation counter (1450 Microbeta, PerkinElmer) in each well. Non-specific binding was calculated based on the radioactivity of [^3H]-Methylspiperone in the presence of 10 μM non-labeled Butaclamol. The total binding was calculated using the radioactivity of [^3H]-Methylspiperone in the absence of the compounds of the present invention (vehicle). The Ki values were calculated from dose-response curves.
(§8) Binding activities of the compounds of the present invention were calculated from the following Binding Inhibition Rate (%): Inhibition Rate(%)=[1−(c−a)/(b−a)]×100 • a: Average cpm of non-specific binding • b: Average cpm of total binding • c: Cpm in the presence of each test compound

[2] = target: human recombinant D2 receptor (Homo sapiens (Human), UniProt P14416); experiment: Test of binding inhibition for dopamine D2 receptor; settings: Jump-In HEK cell membranes, 1.2 nM [3H]-Methylspiperone, 120 min at 25° C.; read-out: hD2_Ki
Description: Test Example 2: Test of Binding Inhibition for Dopamine D2 Receptor
as §1
Cell membranes: Jump-In HEK cell membranes expressing human recombinant D2 receptor (2 μg/well)
as §2
Radioligand: (final concentration) 1.2 nM [^3H]-Methylspiperone ([^3H—N-methyl-]-Methylspiperone, NET-856, 83.8 Ci/mmol, PerkinElmer)
Non-specific ligand: (final concentration) 10 μM Butaclamol [(+)-Butaclamol Hydrochloride, D033; Sigma]
as §3, §4, §5
[^3H]-Methylspiperone was weighed and the buffer solution was added to make a 3.6 nM solution.
as §6
as §7, with “amount: 2” for “amount: 4”, “SPA bead” for “SPA beads”, “of 3.6” for “of 6”, “concentration: 1.2” for “concentration: 2”, “(6050185, PerkinElmer)” for “(6050185, PerkinElmer, Inc.)”, “to D2” for “to D3”
as §8

Sequence of human recombinant D3 receptor (P35462 whole entry): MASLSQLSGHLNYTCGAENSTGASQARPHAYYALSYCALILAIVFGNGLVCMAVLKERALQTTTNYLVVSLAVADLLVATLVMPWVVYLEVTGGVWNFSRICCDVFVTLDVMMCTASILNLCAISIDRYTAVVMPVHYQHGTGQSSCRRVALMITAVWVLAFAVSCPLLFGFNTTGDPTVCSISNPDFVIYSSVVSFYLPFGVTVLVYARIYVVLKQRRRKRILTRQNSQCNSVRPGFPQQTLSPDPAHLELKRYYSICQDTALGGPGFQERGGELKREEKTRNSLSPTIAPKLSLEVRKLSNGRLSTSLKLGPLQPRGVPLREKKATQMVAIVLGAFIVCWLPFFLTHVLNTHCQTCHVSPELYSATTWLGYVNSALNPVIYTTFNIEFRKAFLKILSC
Sequence of human recombinant D2 receptor (P14416 whole entry): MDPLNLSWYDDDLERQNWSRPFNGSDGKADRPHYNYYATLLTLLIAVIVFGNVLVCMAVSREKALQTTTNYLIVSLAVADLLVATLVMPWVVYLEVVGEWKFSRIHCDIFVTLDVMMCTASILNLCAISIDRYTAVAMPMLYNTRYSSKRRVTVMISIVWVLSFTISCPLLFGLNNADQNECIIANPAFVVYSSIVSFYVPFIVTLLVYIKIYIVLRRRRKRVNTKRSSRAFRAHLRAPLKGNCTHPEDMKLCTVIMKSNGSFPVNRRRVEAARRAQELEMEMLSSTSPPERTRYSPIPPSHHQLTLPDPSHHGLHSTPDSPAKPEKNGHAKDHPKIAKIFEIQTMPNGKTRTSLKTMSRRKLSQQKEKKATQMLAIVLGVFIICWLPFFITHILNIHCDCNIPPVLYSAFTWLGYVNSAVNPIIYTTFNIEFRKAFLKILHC

| SMILES | Ki [1] [nM] | Ki [2] [nM] |
| --- | --- | --- |
| O=C(N[C@H]1CC[C@H](CCN2CCC(c3nocc3-c3ccccc3)CC2)CC1)c1cccc2ncccc12 [Compound I-002] | 0.12 | 32 |
| O=C(N[C@H]1CC[C@H](CCN2CCC(c3conc3-c3ccccc3)CC2)CC1)c1cccc2ncccc12 [Compound I-005] | 1.2 | 860 |
| Cc1ncc(CC(=O)N[C@H]2CC[C@H](CCN3CCC(c4noc(C)c4C(C)(F)F)CC3)CC2)s1 [Compound I-009] | 1.9 | 330 |
| Cc1ncc(CC(=O)N[C@H]2CC[C@H](CCN3CCC(c4nocc4C(C)(F)F)CC3)CC2)s1 [Compound I-010] | 0.65 | 230 |
| Cc1ncc(CC(=O)N[C@H]2CC[C@H](CCN3CCC(c4nscc4C(C)(F)F)CC3)CC2)s1 [Compound I-012] | 1.9 | 460 |
| Cc1ncc(CC(=O)N[C@H]2CC[C@H](CCN3CCC(c4nocc4C4CC4)CC3)CC2)s1 [Compound I-013] | 0.95 | 230 |
| CCC(F)(F)c1conc1C1CCN(CC[C@H]2CC[C@H](NC(=O)c3cccc4nn(C)cc34)CC2)CC1 [Compound I-016] | 0.085 | 33 |
| Cn1cc2c(C(=O)N[C@H]3CC[C@H](CCN4CCN(c5nocc5C(C)(F)F)CC4)CC3)cccc2n1 [Compound I-017] | 0.21 | 52 |
| Cc1ncc(CC(=O)N[C@H]2CC[C@H](CCN3CCN(c4nocc4C(C)(F)F)C(C)C3)CC2)s1 (stereo partly shown) [Compound I-019] | 0.15 | 68 |
| CCC(F)(F)c1conc1C1(F)CCN(CC[C@H]2CC[C@H](NC(=O)Cc3cnc(C)s3)CC2)CC1 [Compound I-020] | 0.37 | 310 |
| Cn1cc2c(C(=O)N[C@H]3CC[C@H](CCN4CCC5(c6nocc6C(C)(F)F)CC5C4)CC3)cccc2n1 (stereo partly shown) [Compound I-021] | 4.8 | 1700 |

More lines, in order of falling Ki [1], values ahead:

| Ki [1] [nM] | Ki [2] [nM] | SMILES |
| --- | --- | --- |
| 4 | 1100 | O=C(N[C@H]1CC[C@H](CCN2CCC(c3ccnn3-c3ccccc3)CC2)CC1)c1cccc2ncccc12 [Compound I-006] |
| 3.3 | > 1700 | O=C(N[C@H]1CC[C@H](CCN2CCC(c3nccn3-c3ccccn3)CC2)CC1)c1cccc2ncccc12 [Compound I-001] |
| 2.7 | > 1800 | O=C(N[C@H]1CC[C@H](CCN2CCC(n3nccc3-c3ccccc3)CC2)CC1)c1cccc2ncccc12 [Compound I-007] |
| 1.9 |  | Cn1cc2c(C(=O)N[C@H]3CC[C@H](CCN4CC5CC5(c5cc(CF)on5)C4)CC3)cccc2n1 (stereo partly shown) [Compound I-028] |
| 0.77 |  | CC(F)c1cc(C23CC2CN(CC[C@H]2CC[C@H](NC(=O)c4cccc5nn(C)cc45)CC2)C3)no1 (stereo partly shown) [Compound I-033] |
| 0.69 | 350 | Cc1cc(CC(=O)N[C@H]2CC[C@H](CCN3CCC(c4nocc4C(C)(F)F)CC3)CC2)on1 [Compound I-008] |
| 0.63 | 380 | Cc1ncc(CC(=O)N[C@H]2CC[C@H](CCN3CCC(c4nocc4CC4CC4)CC3)CC2)s1 [Compound I-011] |
| 0.6 | 160 | O=C(N[C@H]1CC[C@H](CCN2CCC(c3nocc3C3CC3)CC2)CC1)c1cccc2ncccc12 [Compound I-004] |
| 0.22 | 45 | Cn1cc2c(C(=O)N[C@H]3CC[C@H](CCN4CCC(c5nocc5C(F)(F)C5CC5)CC4)CC3)cccc2n1 [Compound I-018] |
| 0.2 | 88 | Cc1ncc(CC(=O)N[C@H]2CC[C@H](CCN3CCN(c4nocc4C(C)(F)F)CC3)CC2)s1 [Compound I-014] |
| 0.13 | 67 | CCC(F)(F)c1conc1C1CCN(CC[C@H]2CC[C@H](NC(=O)Cc3nnc(C)s3)CC2)CC1 [Compound I-015] |
| 0.11 | 170 | Cn1cc2c(C(=O)N[C@H]3CC[C@H](CCN4CCC(c5nocc5C(C)(F)F)CC4)CC3)cccc2n1 [Compound I-022] |
| 0.093 | 36 | O=C(N[C@H]1CC[C@H](CCN2CCC(c3nocc3-c3cccc(F)c3)CC2)CC1)c1cccc2ncccc12 [Compound I-003] |
